# Measurements from the supplement of paper PMC4862054.
# Tests used:
# Details in all cases: incubation time: 72 h
# MDA-MB-453 [1] = test: normalised viability (% of control), CellTiter-Blue; higher = more viable cells (about 100 = DMSO control)
# Method: (§1)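 DSRT, CellTiter-Blue viability, 72 h incubation. Signal is normalised to DMSO and benzethonium chloride controls. Value is the normalised response at dose 7.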
# HDQ-P1 [2] = test: as above
# Method: as §1
# CAL-51 [3] = test: as above
# Method: as §1
# CAL-148 [4] = test: as above
# Method: as §1
# DU-4475 [5] = test: as above
# Method: as §1
# CAL-85-1 [6] = test: as above
# Method: as §1
# HCC1599 [7] = test: drug sensitivity score (DSS), CellTiter-Blue viability (DSS (AUC-based score)); higher = stronger viability inhibition; extreme values may be limits of the assay
# Method: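 DSRT with the CellTiter-Blue (resazurin reduction) viability readout, fluorescence 560/590 nm, 72 h incubation. Plates were normalised to DMSO and benzethonium chloride controls. DSS is computed from the area under the fitted dose-response curve (5 or 9 concentrations).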
# HCC1143 = test: normalised viability (% of control), CellTiter-Blue; higher = more viable cells (about 100 = DMSO control)
# Method: (§2)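 DSRT, CellTiter-Blue viability, 72 h incubation. Signal is normalised to DMSO and benzethonium chloride controls. Value is the normalised response at dose 3.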
# MDA-MB-231 = test: as above
# Method: as §2
# BT-474 = test: as above
# Method: as §2
# HCC1599 [8] = test: as above
# Method: as §2
# MDA-MB-453 [9] = test: as above; remark: listed apart in the source
# Method: as §2
# HDQ-P1 [10] = test: as above; remark: listed apart in the source
# Method: as §2
# MDA-MB-468 [11] = test: as above
# Method: as §2
# Hs578T = test: as above
# Method: as §2
# SK-BR-3 = test: as above
# Method: as §2
# MDA-MB-436 = test: as above
# Method: as §2
# CAL-51 [12] = test: as above; remark: listed apart in the source
# Method: as §2
# HCC1937 = test: as above
# Method: as §2
# MFM-223 = test: as above
# Method: as §2
# CAL-148 [13] = test: as above; remark: listed apart in the source
# Method: as §2
# BT-549 = test: as above
# Method: as §2
# CAL-120 = test: as above
# Method: as §2
# DU-4475 [14] = test: as above; remark: listed apart in the source
# Method: as §2
# CAL-85-1 [15] = test: as above; remark: listed apart in the source
# Method: as §2
# MDA-MB-468 [16] = test: drug sensitivity score (DSS), CellTox Green (DSS (AUC-based score)); higher = stronger drug effect (viability inhibition or cytotoxicity); extreme values may be limits of the assay
# Procedure, shortened: (§3)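 After 72 h of incubation in 384-well plates with compound at 5 concentrations (10-fold steps, 10,000-fold range set per compound), breast cancer cell lines seeded in 20 µl suspension were read first for CellTox Green fluorescence at 485/520 nm. CellTiter-Glo luminescence was measured next, after 10 min at room temperature. Normalisation on each plate used 0.1 % DMSO and a positive kill control, and the drug sensitivity score was computed from the area under the fitted dose-response curve.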
# CAL-85-1 [17] = test: as above
# Procedure, shortened: as §3
compound,measurement,setting,value
CN(C)C[C@@H]1CCn2cc(c3ccccc32)C2=C(C(=O)NC2=O)c2cn(c3ccccc23)CCO1 [Ruboxistaurin],normalised viability,MDA-MB-453 [1]; 1000 nM,102%
same,normalised viability,HDQ-P1 [2]; 1000 nM,67.1%
same,normalised viability,CAL-51 [3]; 1000 nM,76.8%
same,normalised viability,CAL-148 [4]; 1000 nM,101%
same,normalised viability,DU-4475 [5]; 1000 nM,73.9%
same,normalised viability,CAL-85-1 [6]; 1000 nM,122%
same,drug sensitivity score,HCC1599 [7],3.54
same,normalised viability,HCC1143; 100 nM,128%
same,normalised viability,MDA-MB-231; 100 nM,95.8%
same,normalised viability,BT-474; 100 nM,98.7%
same,normalised viability,HCC1599 [8]; 100 nM,111%
same,normalised viability,MDA-MB-453 [9]; 10 nM,96.7%
same,normalised viability,HDQ-P1 [10]; 10 nM,82.6%
same,normalised viability,MDA-MB-468 [11]; 100 nM,90.1%
same,normalised viability,Hs578T; 100 nM,68.9%
same,normalised viability,SK-BR-3; 100 nM,82.2%
same,normalised viability,MDA-MB-436; 100 nM,91.6%
same,normalised viability,CAL-51 [12]; 10 nM,91.8%
same,normalised viability,HCC1937; 100 nM,85.3%
same,normalised viability,MFM-223; 100 nM,105%
same,normalised viability,CAL-148 [13]; 10 nM,112%
same,normalised viability,BT-549; 100 nM,89%
same,normalised viability,CAL-120; 100 nM,126%
same,normalised viability,DU-4475 [14]; 10 nM,101%
same,normalised viability,CAL-85-1 [15]; 10 nM,117%
same,drug sensitivity score,MDA-MB-468 [16],6.81
same,drug sensitivity score,CAL-85-1 [17],7.2
O=C1NC(=O)[C@@H](c2cn3c4c(cccc24)CCC3)[C@@H]1c1c[nH]c2ccccc12 [Tivantinib],normalised viability,MDA-MB-453 [1]; 100 nM,78.1%
same,normalised viability,HDQ-P1 [2]; 100 nM,106%
same,normalised viability,CAL-51 [3]; 100 nM,104%
same,normalised viability,CAL-148 [4]; 100 nM,112%
same,normalised viability,DU-4475 [5]; 100 nM,109%
same,normalised viability,CAL-85-1 [6]; 100 nM,77.2%
same,drug sensitivity score,HCC1599 [7],0.607
same,normalised viability,HCC1143; 10 nM,87.8%
same,normalised viability,MDA-MB-231; 10 nM,116%
same,normalised viability,BT-474; 10 nM,109%
same,normalised viability,HCC1599 [8]; 10 nM,98.4%
same,normalised viability,MDA-MB-453 [9]; 1 nM,108%
same,normalised viability,HDQ-P1 [10]; 1 nM,109%
same,normalised viability,MDA-MB-468 [11]; 10 nM,104%
same,normalised viability,Hs578T; 10 nM,86.5%
same,normalised viability,SK-BR-3; 10 nM,77.3%
same,normalised viability,MDA-MB-436; 10 nM,101%
same,normalised viability,CAL-51 [12]; 1 nM,106%
same,normalised viability,HCC1937; 10 nM,101%
same,normalised viability,MFM-223; 10 nM,105%
same,normalised viability,CAL-148 [13]; 1 nM,107%
same,normalised viability,BT-549; 10 nM,111%
same,normalised viability,CAL-120; 10 nM,90.8%
same,normalised viability,DU-4475 [14]; 1 nM,97.8%
same,normalised viability,CAL-85-1 [15]; 1 nM,105%
same,drug sensitivity score,MDA-MB-468 [16],0
same,drug sensitivity score,CAL-85-1 [17],5.35
Cn1c(=O)n(-c2ccc(C(C)(C)C#N)cc2)c2c3cc(-c4cnc5ccccc5c4)ccc3ncc21 [Dactolisib],drug sensitivity score,MDA-MB-468 [16],0
same,drug sensitivity score,CAL-85-1 [17],2.63
